Measurements from patent publication US10106565B2 (priority 2008, dated 2018).

What was measured:
[1] = system: purified CD4 T lymphocytes; assay type: cell-based, human; conditions: 20 μM dendrimer; anti-CD3/anti-CD28 microbeads and IL2; without dendrimer 88%
Method: PBMC from adult healthy volunteers are prepared as described in example 5.1.
CD4 T lymphocytes are then purified from PBMC by positive selection using microbeads conjugated with anti-CD4 mAb, according to the manufacturer's instructions (Miltenyi Biotec). The cells obtained after the purification are >98% pure (as verified by flow cytometry).
Purified CD4 T lymphocytes are cultured at a final concentration of 1.5×10^6 cells/mL in complete RPMI 1640 medium (as described in example 5.1). Then, their proliferation is triggered by microbeads coated with anti-CD3 and anti-CD28 mAbs (Dynabeads®, Dynal Biotech ASA). Dendrimer Gc1 and its analogs are made soluble in sterile water at 2 mM and filtered through a 0.2 μm membrane before use at 20 μM in culture.
Proliferation of purified CD4 T lymphocytes is evaluated by flow cytometry by analyzing the intracellular dilution of a fluorescent probe: the CFSE.

CD4 T cells = test: Allogenic mixed leucocyte reaction (MLR) with activated monocytes; assay type: cell-based, human; conditions: 20 μM, 24 hours activation; PBL:monocyte ratios 4:1 to 100:1; vs alt- and class-monocytes
Method: For the functional experiments, freshly purified monocytes are cultured in 6-well plates. The cells are stimulated for 24 hours (immunophenotyping by flow cytometry analyses, MLR) or 96 hours (CD206 detection) with different stimuli or remain untreated (control). Dendrimer-activated monocytes (da-monocytes) are obtained with 20 μM of the dendrimer Gc1, alternatively-activated monocytes (alt-monocytes) with 10 U/mL recombinant human IL4 (Peprotech). The classical activation of monocytes is obtained by priming the cells over night (18 hours) with 100 U/mL of human recombinant IFN-γ (R&D Systems) and, after a washing step in PBS, by stimulation with 10 ng/mL LPS from E. coli 011/B4 strain (InvivoGen) for the remaining 6 hours or […].
MLR are performed in 96-well round bottom plates in a total volume of 200 μL in complete RPMI 1640 medium. […] The proliferation of the CD4 T cells is analyzed by measuring the cytoplasmic dilution of CFSE (as described in 5.1. Methods). […] Then, CFSE dilution is analyzed by flow cytometry to measure the proliferation of alloantigen-induced CD4 T cells. After gating for CD4 positive cells CFSE fluorescence intensities are analyzed, and the percentage of CD4 T cells which have proliferated during the MLR is taken into account. […] The overall differences are evaluated by analysis of variance test (ANOVA) with Sigma Stat software (Systat Software).

human monocytes = test: Differentiation of monocytes in osteoclasts (M-CSF and sRANK-Ligand); assay type: cell-based
Method: (§1) PBMC from adult healthy volunteers are prepared as described in example 1.
Monocytes are then purified by negative selection using a kit containing a mixture of mouse anti-human mAbs and superparamagnetic polystyrene beads coated with a human anti-mouse IgG mAbs, according to the manufacturer's instructions (Dynal). The cells obtained after the purification are >90% pure.
Pure monocytes are activated or not during 6 hours with 20 μM of dendrimer Gc1. After three washings, activated and not activated monocytes are cultured for 21 days in α-MEM complete medium, i.e. supplemented with 10% of heat inactivated fetal calf serum (FCS) (Invitrogen), 2 mM L-glutamine, 100 U/mL penicillin and 100 μg/mL streptomycin (Cambrex Bioscience) in presence or not of 20 μM of dendrimer Gc1. To generate osteoclasts, 50 ng/mL of M-CSF (PeproTech) and 30 ng/mL of sRANK-Ligand (PeproTech) are added to the culture medium. Each three days, half medium is changed and 25 ng/mL of M-CSF and 100 ng/mL of sRANK-Ligand are added. At day 21, the cells are fixed and stained with the leucocyte phosphatase acid kit according to the manufacturer's instructions (Sigma-Aldrich).

[2] = system: osteoclasts differentiated from human monocytes on bone matrix; test: Bone resorption in vitro (Crosslaps assay, CTX release); assay type: cell-based; conditions: for inhibition at 0.2 µM: 200 nM in differentiating medium; for inhibition at 20 µM: Monocyte, monocytes pre-incubated (6 hours, 20 μM) before differentiation
Method: as §1
Monocytes are then purified as described in section 4.2.
Monocytes were cultured in bone matrix 96-well plates (OsteoAssay Human bone plate, Lonza, USA) and differentiated into osteoclasts in the presence of M-CSF and sRANK-Ligand as described in section 4.2. Supernatants were collected and bone resorption was evaluated using a Crosslaps assay (Nordicbioscience, Danemark) which measures collagen degradation fragments.

IL-1ra−/− mice = test: Spontaneous arthritis in IL-1ra-/- mice; assay type: in vivo; conditions: 10 mg/kg weekly intravenous from 8 weeks of age; at the age of 15 weeks
Text: Dendrimer ABP (azabisphosphonate) or Gc1 (FIG. 16A) was initially compared to two other dendrimer-based systems, dendrimer azamonophosphonate (AMP) and dendrimer polypropyleneimine (PPI), for antiarthritic activity in mice, according to the following protocole, described by Hayder et al. Science Transl. Med. 2011, 3, 81ra35.
IL-1ra−/− mice develop spontaneous arthritis beginning at 4 weeks of age. By 10 weeks, 100% of mice show full-blown disease, with marked paw swelling. We assessed the effect of dendrimers ABP, AMP, and PPI in this model of arthritis via weekly intravenous injections (10 mg/kg) starting at 8 weeks of age. The evolution of inflammation and arthritis was followed by measuring the hind paw swelling and by clinical arthritic score. The arthritic score per animal was the sum of the scores attributed to the four paws (28).

Question: How did the “purified CD4 T lymphocytes that have divided” value [1] turn out when `CN(/N=C/c1ccc(OP2(Oc3ccc(/C=N/N(C)P(=S)(Oc4ccc(CCN(CP(=O)(O)O)CP(=O)(O)O)cc4)Oc4ccc(CCN(CP(=O)(O)O)CP(=O)(O)O)cc4)cc3)=NP(Oc3ccc(/C=N/N(C)P(=S)(Oc4ccc(CCN(CP(=O)(O)O)CP(=O)(O)O)cc4)Oc4ccc(CCN(CP(=O)(O)O)CP(=O)(O)O)cc4)cc3)(Oc3ccc(/C=N/N(C)P(=S)(Oc4ccc(CCN(CP(=O)(O)O)CP(=O)(O)O)cc4)Oc4ccc(CCN(CP(=O)(O)O)CP(=O)(O)O)cc4)cc3)=NP(Oc3ccc(/C=N/N(C)P(=S)(Oc4ccc(CCN(CP(=O)(O)O)CP(=O)(O)O)cc4)Oc4ccc(CCN(CP(=O)(O)O)CP(=O)(O)O)cc4)cc3)(c3ccc(/C=N/N(C)P(=S)(Oc4ccc(CCN(CP(=O)(O)O)CP(=O)(O)O)cc4)Oc4ccc(CCN(CP(=O)(O)O)CP(=O)(O)O)cc4)cc3)=N2)cc1)P(=S)(Oc1ccc(CCN(CP(=O)(O)O)CP(=O)(O)O)cc1)Oc1ccc(CCN(CP(=O)(O)O)CP(=O)(O)O)cc1` (stereo not shown) [Gc1] was run?
Answer: The value was 10.2%.

Question: And the “MLR activation (divided CD4+ T lymphocytes) by da-monocytes” value (CD4 T cells)?
Answer: The value was “lowest activating effect on MLR”.

Question: And the “differentiation of human monocytes in osteoclasts” value (human monocytes; 20 μM added in the culture medium, 21 days)?
Answer: Its value is “inhibits”.

Question: What about the “differentiation of human monocytes in osteoclasts” value (human monocytes; monocytes pre-incubated with 20 μM during 6 hours, then rinsed) of the same compound?
Answer: Its value is “inhibition”.

Question: And the inhibition at 0.2 µM ([2]; 288 h, day 12)?
Answer: The inhibition at 0.2 µM was about 60%.

Question: What about the inhibition at 0.2 µM ([2]; 360 h, day 15) of the same compound?
Answer: The inhibition at 0.2 µM was about 80%.

Question: And the inhibition at 20 µM ([2]; day 12)?
Answer: Its inhibition at 20 µM is about 80%.

Question: And the inhibition at 20 µM ([2]; day 15)?
Answer: The inhibition at 20 µM was about 50%.

Question: What about the arthritic score (IL-1ra−/− mice) of the same compound?
Answer: The arthritic score was “significant decrease”.

Question: What about the paw swelling (IL-1ra−/− mice) of the same compound?
Answer: The paw swelling was “significant decrease”.
